Experimental data published in patent publication US20100216994A1, “USE OF NOVEL COMPOUND HAVING AFFINITY FOR AMYLOID, AND PROCESS FOR PRODUCTION OF THE SAME” (NIHON MEDI-PHYSICS CO., LTD., priority 2007, published 2010).
Where two headings read alike, the source gives them in different places.

How the values were obtained:
[1] = [^125I]-labeled compounds, normal mice, brain; cited from earlier work
[2] = International Publication No. WO03/106439; cited from earlier work
[3] = molecular target: aggregated Aβ (amyloid) from Aβ1-42 (Homo sapiens, UniProt P05067)
Excerpt: Affinity of the present compounds with amyloid was examined by the following in vitro binding tests.

[4] = Partition coefficient based on the octanol extraction method (logPoctanol); conditions: octanol / 10 mmol/L phosphate buffer (pH 7.4)
Description: 10 μL each of the prepared sample solution was respectively added to 2 mL of octanol, further, 2 mL of 10 mmol/L phosphate buffer (pH 7.4) was added, and stirred for 30 seconds. After the mixture was centrifuged with a low-speed centrifuge (2000 rpm×60 min.), the octanol layer and the water layer were sampled each in an amount of 1 mL, and subjected to measurement of radioactivity count with an autowell gamma system (Type: ARC-301B, manufactured by Aloka). Using the obtained radioactivity count, logPoctanol was calculated in accordance with the equation (2).

[5] = molecular target: T1, intracerebral amyloid (aggregated Aβ1-42) (Homo sapiens, UniProt P05067); experiment: Confirmation of imaging of amyloid in brain (autoradiogram of brain slice, amyloid injected into amygdaloid nucleus); assay type: in vivo, male Wistar rat; conditions: rat, tail vein injection, brain removed 60 minutes after injection
T1 construct: Aβ1-42 (Wako) was dissolved in phosphate buffer (pH 7.4); purchased Wako
Description: (§1) The following experiment was carried out in order to examine whether amyloid in brain can be imaged by the compound of the present invention.
(§2) (1) Aβ1-42 (Wako) was dissolved in phosphate buffer (pH 7.4) and shaken at 37° C. for 72 hours, to obtain a 1 mg/mL suspension of aggregated Aβ (hereinafter referred to as amyloid suspension in this Example).
(§3) (2) Under thiopental anesthesia, […] of the amyloid suspension was injected into an amygdaloid nucleus on one side of a male Wistar rat (7-week old). As a control, 2.5 μL of a phosphate buffered physiological saline solution (pH 7.4) was injected into an amygdaloid nucleus on the other side of the rat. The rats were examined 1 day after the injection of the amyloid suspension and the phosphate buffered physiological saline solution (pH 7.4).
(§4) This sample solution was injected under thiopental anesthesia into the rat through the tail vein (dosage: 0.5 mL, dosed radioactivity: 16 MBq equivalent).
(§5) (4) Brain was removed 60 minutes after the injection to prepare a brain slice of 10 μm in thickness with a microtome (type: CM3050S, manufactured by LEICA). The brain slice was exposed to an imaging plate for 20 hours, and then image analysis was carried out by use of a Bio-imaging Analyzer (type: BAS-2500; manufactured by FUJIFILM Corporation).

[6] = test system: intracerebral amyloid (aggregated Aβ1-42); experiment: as above; assay type: in vivo, male Wistar rat; conditions: rat, tail vein injection, brain removed 60 minutes after injection
Description: as §1, §2, §3, §4, §5

[7] = SD rat; for radioactive distribution per unit weight, Adrenal gland, Average / radioactive distribution per unit weight, Blood, Average / radioactive distribution per unit weight, Bone, Average / radioactive distribution per unit weight, Brain, Average / radioactive distribution per unit weight, Heart, Average / radioactive distribution per unit weight, Kidney, Average / radioactive distribution per unit weight, Large intestine, Average / radioactive distribution per unit weight, Liver, Average / radioactive distribution per unit weight, Lung, Average / radioactive distribution per unit weight, Marrow, Average / radioactive distribution per unit weight, Muscle, Average / radioactive distribution per unit weight, Pancreas, Average / radioactive distribution per unit weight, Small intestine, Average / radioactive distribution per unit weight, Spleen, Average / radioactive distribution per unit weight, Stomach, Average: tail vein
Description: 0.2 mL each of the prepared sample solution was administered under non-thiopental anesthesia into the tail vein of the above rat. The rats were sacrificed by bleeding from abdominal artery, and each organ shown in Table 4 was removed 5, 30, 60 and 180 minutes after the administration. Each removed organ was subjected to measurement of mass and radioactivity with the same method as in Example 15. Also, radioactivity of the whole body of the rat after removal of the organs (hereinafter, refers to rest of the whole body) was measured. Using these measurement results, radioactive distribution per unit weight of each organ (% ID/g) at the respective time points was calculated in accordance with the following formula (4).
Three animals were used for the experiment at the respective time points.
R^T: Radioactivity of target organ (cpm) RS: Sum of radioactivity of all the organs (cpm)
R^R: Radioactivity of the rest of the whole body (cpm)
M^T: Mass of target organ (g)

[8] = Transferability into brain and clearance (radioactive accumulation in brain after intravenous injection); conditions: rats
Description: Using [^123I]-2-(4′-iodophenyl)-6-methoxyimidazo[1,2-a]pyridine and [^123I]-2-(4′-fluorophenyl)-6-iodoimidazo[1,2-a]pyridine, a time course change of radioactive accumulation in brain of male Wistar rats (7-week old) was measured.
The rats were sacrificed by bleeding from abdominal artery, and brains were removed and subjected to measurement of mass of brains (hereinafter referred to as A in this Example) and further subjected to measurement of radioactivity with a single channel analyzer (detector type: SP-20 manufactured by OHYO KOKEN KOGYO Co., Ltd.) 2, 5, 30 and 60 minutes after the injection. Also, radioactivity (hereinafter referred to as B in this Example) of the rest of the whole body was measured in the same manner as above.
The same procedures as above was conducted and subjected to the same procedures as above to calculate radioactive accumulation per unit weight of a brain (% ID/g) at the respective time points were calculated.
Three animals were used for Example 15, Example 16 and Comparative Example 2 at the respective time points.

[9] = [^11C]-labeled, rats; cited from earlier work

Chain of aggregated Aβ (amyloid) from Aβ1-42 (P05067 672-713): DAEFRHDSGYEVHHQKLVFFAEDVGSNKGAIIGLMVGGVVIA
T1 sequence (P05067 672-713): as above

Structure (SMILES): CN(C)c1ccc(/C=C/c2ccc(I)cc2)cc1 [m-I-SB, (E)-4-dimethylamino-4′-iodostilbene]
- clearance from normal tissues [1]: insufficient in clearance from normal tissues

Structure (SMILES): CC(=C(C#N)C#N)c1ccc2cc(N(C)CCF)ccc2c1 [FDDNP, 2-(1-{6-[(2-fluoroethyl)(methyl)amino]-2-naphthyl}ethylidene)malononitrile]
- reverse mutation test result [2]: positive

Structure (SMILES): COc1ccc2nc(-c3ccc([125I])cc3)cn2c1 [[^125I]-2 (4′-iodophenyl)-6-methoxyimidazo[1,2-a]pyridine]
- radioactive count specifically attached to amyloid (A−B) versus concentration of amyloid ([3]; amyloid 25, 62.5, 250, 625 and 1000 nmol/L, 22° C., 3 hours, non-specific count B subtracted): increase proportionally to the concentration of amyloid
- capability of binding to amyloid ([3]; conclusion from in vitro binding test): highly capable of binding to amyloid

Structure (SMILES): COc1ccc2nc(-c3ccc([123I])cc3)cn2c1 [[^123I]-2-(4′-iodophenyl)-6-methoxyimidazo[1,2-a]pyridine]
- logPoctanol value [4]: 2.3
- accumulation of radioactivity in amygdaloid nucleus on the side to which the amyloid suspension was injected [5]: marked accumulation of radioactivity
- accumulation of radioactivity in amygdaloid nucleus on the side to which the physiological saline solution was injected [6]: no significant accumulation of radioactivity
- ratio (% ID/g at 5 minutes after the administration)/(% ID/g at 180 minutes after the administration), bone ([7]; bone): 3
- ratio (% ID/g at 5 minutes after the administration)/(% ID/g at 180 minutes after the administration), brain ([7]; brain): 43
- excretion / clearance to the outside of the body ([7]; distribution moved from small intestine to large intestine): biliary-excreted rapidly after the administration
- ratio (% ID/g at 5 minutes after the administration)/(% ID/g at 180 minutes after the administration), heart ([7]; heart): 12
- ratio (% ID/g at 5 minutes after the administration)/(% ID/g at 180 minutes after the administration), lung ([7]; lung): 7
- ratio (% ID/g at 5 minutes after the administration)/(% ID/g at 180 minutes after the administration), pancreas ([7]; pancreas): 8
- radioactive distribution per unit weight, Adrenal gland, Average ([7]; 5 min. after administration): 5.163 % ID/g
- radioactive distribution per unit weight, Blood, Average ([7]; 5 min. after administration): 0.290 % ID/g
- radioactive distribution per unit weight, Bone, Average ([7]; 5 min. after administration): 0.223 % ID/g
- radioactive distribution per unit weight, Brain, Average ([7]; 5 min. after administration): 1.175 % ID/g
- radioactive distribution per unit weight, Heart, Average ([7]; 5 min. after administration): 0.752 % ID/g
- radioactive distribution per unit weight, Kidney, Average ([7]; 5 min. after administration): 1.434 % ID/g
- radioactive distribution per unit weight, Large intestine, Average ([7]; 5 min. after administration): 0.122 % ID/g
- radioactive distribution per unit weight, Liver, Average ([7]; 5 min. after administration): 1.857 % ID/g
- radioactive distribution per unit weight, Lung, Average ([7]; 5 min. after administration): 1.109 % ID/g
- radioactive distribution per unit weight, Marrow, Average ([7]; 5 min. after administration): 0.937 % ID/g
- radioactive distribution per unit weight, Muscle, Average ([7]; 5 min. after administration): 0.344 % ID/g
- radioactive distribution per unit weight, Pancreas, Average ([7]; 5 min. after administration): 0.709 % ID/g
- radioactive distribution per unit weight, Small intestine, Average ([7]; 5 min. after administration): 0.729 % ID/g
- radioactive distribution per unit weight, Spleen, Average ([7]; 5 min. after administration): 0.460 % ID/g
- radioactive distribution per unit weight, Stomach, Average ([7]; 5 min. after administration): 0.203 % ID/g
- radioactive distribution per unit weight, Adrenal gland, Average ([7]; 30 min. after administration): 2.364 % ID/g
- radioactive distribution per unit weight, Blood, Average ([7]; 30 min. after administration): 0.240 % ID/g
- radioactive distribution per unit weight, Bone, Average ([7]; 30 min. after administration): 0.136 % ID/g
- radioactive distribution per unit weight, Brain, Average ([7]; 30 min. after administration): 0.220 % ID/g
- radioactive distribution per unit weight, Heart, Average ([7]; 30 min. after administration): 0.220 % ID/g
- radioactive distribution per unit weight, Kidney, Average ([7]; 30 min. after administration): 2.102 % ID/g
- radioactive distribution per unit weight, Large intestine, Average ([7]; 30 min. after administration): 0.096 % ID/g
- radioactive distribution per unit weight, Liver, Average ([7]; 30 min. after administration): 1.197 % ID/g
- radioactive distribution per unit weight, Lung, Average ([7]; 30 min. after administration): 0.410 % ID/g
- radioactive distribution per unit weight, Marrow, Average ([7]; 30 min. after administration): 0.285 % ID/g
- radioactive distribution per unit weight, Muscle, Average ([7]; 30 min. after administration): 0.092 % ID/g
- radioactive distribution per unit weight, Pancreas, Average ([7]; 30 min. after administration): 0.338 % ID/g
- radioactive distribution per unit weight, Small intestine, Average ([7]; 30 min. after administration): 3.964 % ID/g
- radioactive distribution per unit weight, Spleen, Average ([7]; 30 min. after administration): 0.207 % ID/g
- radioactive distribution per unit weight, Stomach, Average ([7]; 30 min. after administration): 1.081 % ID/g
- radioactive distribution per unit weight, Adrenal gland, Average ([7]; 60 min. after administration): 1.775 % ID/g
- radioactive distribution per unit weight, Blood, Average ([7]; 60 min. after administration): 0.203 % ID/g
- radioactive distribution per unit weight, Bone, Average ([7]; 60 min. after administration): 0.102 % ID/g
- radioactive distribution per unit weight, Brain, Average ([7]; 60 min. after administration): 0.111 % ID/g
- radioactive distribution per unit weight, Heart, Average ([7]; 60 min. after administration): 0.134 % ID/g
- radioactive distribution per unit weight, Kidney, Average ([7]; 60 min. after administration): 1.630 % ID/g
- radioactive distribution per unit weight, Large intestine, Average ([7]; 60 min. after administration): 0.099 % ID/g
- radioactive distribution per unit weight, Liver, Average ([7]; 60 min. after administration): 0.836 % ID/g
- radioactive distribution per unit weight, Lung, Average ([7]; 60 min. after administration): 0.243 % ID/g
- radioactive distribution per unit weight, Marrow, Average ([7]; 60 min. after administration): 0.000 % ID/g
- radioactive distribution per unit weight, Muscle, Average ([7]; 60 min. after administration): 0.062 % ID/g
- radioactive distribution per unit weight, Pancreas, Average ([7]; 60 min. after administration): 0.247 % ID/g
- radioactive distribution per unit weight, Small intestine, Average ([7]; 60 min. after administration): 5.924 % ID/g
- radioactive distribution per unit weight, Spleen, Average ([7]; 60 min. after administration): 0.154 % ID/g
- radioactive distribution per unit weight, Stomach, Average ([7]; 60 min. after administration): 1.476 % ID/g
- radioactive distribution per unit weight, Adrenal gland, Average ([7]; 180 min. after administration): 0.754 % ID/g
- radioactive distribution per unit weight, Blood, Average ([7]; 180 min. after administration): 0.139 % ID/g
- radioactive distribution per unit weight, Bone, Average ([7]; 180 min. after administration): 0.070 % ID/g
- radioactive distribution per unit weight, Brain, Average ([7]; 180 min. after administration): 0.027 % ID/g
- radioactive distribution per unit weight, Heart, Average ([7]; 180 min. after administration): 0.061 % ID/g
- radioactive distribution per unit weight, Kidney, Average ([7]; 180 min. after administration): 0.643 % ID/g
- radioactive distribution per unit weight, Large intestine, Average ([7]; 180 min. after administration): 3.294 % ID/g
- radioactive distribution per unit weight, Liver, Average ([7]; 180 min. after administration): 0.374 % ID/g
- radioactive distribution per unit weight, Lung, Average ([7]; 180 min. after administration): 0.163 % ID/g
- radioactive distribution per unit weight, Marrow, Average ([7]; 180 min. after administration): 0.000 % ID/g
- radioactive distribution per unit weight, Muscle, Average ([7]; 180 min. after administration): 0.027 % ID/g
- radioactive distribution per unit weight, Pancreas, Average ([7]; 180 min. after administration): 0.088 % ID/g
- radioactive distribution per unit weight, Small intestine, Average ([7]; 180 min. after administration): 2.870 % ID/g
- radioactive distribution per unit weight, Spleen, Average ([7]; 180 min. after administration): 0.084 % ID/g
- radioactive distribution per unit weight, Stomach, Average ([7]; 180 min. after administration): 1.272 % ID/g
- Radioactive accumulation per unit weight in brain ([8]; after 2 min.): 1.26 % ID/g
- Radioactive accumulation per unit weight in brain ([8]; after 5 min.): 0.89 % ID/g
- Radioactive accumulation per unit weight in brain ([8]; after 30 min.): 0.19 % ID/g
- Radioactive accumulation per unit weight in brain ([8]; after 60 min.): 0.09 % ID/g

Structure (SMILES): CNc1ccc(/C=C/c2ccc(O)cc2)cc1 [SB-13, (E)-4-methylamino-4′-hydroxystilbene]
- clearance from normal tissues [9]: it cannot be said that the clearance is sufficiently fast

Structure (SMILES): CN(C)c1ccc(-c2nc3ccc(I)cc3o2)cc1 [IBOX, 6-iodo-2-[4′-(N,N-dimethylamino)phenyl]benzoxazole]
- clearance from normal tissues [1]: insufficient in clearance from normal tissues

Structure (SMILES): CN(C)c1ccc(-c2cn3cc(I)ccc3n2)cc1 [IMPY, 6-iodo-2-[4′-(N,N-dimethylamino)phenyl]imidazo[1,2-a]pyridine]
- reverse mutation test result [2]: positive

Structure (SMILES): CN(C)c1ccc(-c2nc3ccc(I)cc3s2)cc1 [TZDM, 6-iodo-2-[4′-(N,N-dimethylamino)phenyl]benzothiazole]
- clearance from normal tissues [1]: insufficient in clearance from normal tissues
